According to the supplement of paper PMC10307832:

Experiments:
Assay in all cases: relative viability (nuclei count vs DMSO), 5 days (fraction); higher = more cells survive
[1] = system: LCLC-103H
Method in brief: (§1)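 Values are medians from duplicate plates. Each reflects relative viability, defined as the nuclei count of treated wells over that of vehicle wells. Lung cancer cell lines in 1536-well plates were pin-tool dosed one day after seeding with one drug alone or with a fixed anchor-drug dose plus five library-drug doses (not always all listed) in √10 steps, then fixed, stained and imaged at 4× after 5 days.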

[2] = system: LXF-289
Method in brief: as §1

[3] = system: NCI-H1355
Method in brief: as §1

[4] = system: NCI-H1651
Method in brief: as §1

[5] = system: NCI-H1755
Method in brief: as §1

[6] = system: NCI-H1792
Method in brief: as §1

[7] = system: NCI-H1915
Method in brief: as §1

[8] = system: NCI-H2170
Method in brief: as §1

[9] = system: NCI-H2347
Method in brief: as §1

[10] = system: NCI-H3122
Method in brief: as §1

[11] = system: NCI-H322M
Method in brief: as §1

[12] = system: NCI-H441
Method in brief: as §1

[13] = system: NCI-H460
Method in brief: as §1

[14] = system: NCI-H520
Method in brief: as §1

[15] = system: NCI-H596
Method in brief: as §1

[16] = system: NCI-H650
Method in brief: as §1

[17] = system: NCI-H661
Method in brief: as §1

[18] = system: NCI-H727
Method in brief: as §1

[19] = system: PC-14
Method in brief: as §1

[20] = system: RERF-LC-KJ
Method in brief: as §1

[21] = system: SK-MES-1
Method in brief: as §1

[22] = system: SW 900
Method in brief: as §1

Work on `NC(=O)Nc1cc(-c2cccc(F)c2)sc1C(=O)N[C@H]1CCCNC1` [AZD7762] + CC(=O)Nc1cccc(-n2c(=O)n(C3CC3)c(=O)c3c(Nc4ccc(I)cc4F)n(C)c(=O)c(C)c32)c1 [Trametinib] (partner 0.02 µM) yielded a relative viability ([1]; first compound 0.01 µM) of 0.683, a relative viability ([1]; first compound 0.03162 µM) of 0.674 and a relative viability ([1]; first compound 0.1 µM) of 0.712. The relative viability ([1]; first compound 0.3162 µM) was 0.574, the relative viability ([1]; first compound 1 µM) was 0.712 and the relative viability ([2]; first compound 0.01 µM) was 0.618. The relative viability ([2]; first compound 0.03162 µM) was 0.699, the relative viability ([2]; first compound 0.1 µM) was 0.692 and the relative viability ([2]; first compound 0.3162 µM) was 0.458. The relative viability ([2]; first compound 1 µM) was 0.68, the relative viability ([3]; first compound 0.01 µM) was 0.406 and the relative viability ([3]; first compound 0.03162 µM) was 0.466. For the same compound, the relative viability ([3]; first compound 0.1 µM) was 0.368, the relative viability ([3]; first compound 0.3162 µM) was 0.441 and the relative viability ([3]; first compound 1 µM) was 0.522. For the same compound, the relative viability ([4]; first compound 0.01 µM) was 0.882, the relative viability ([4]; first compound 0.03162 µM) was 0.852 and the relative viability ([4]; first compound 0.1 µM) was 0.871. It also gave a relative viability ([4]; first compound 0.3162 µM) of 0.873, a relative viability ([4]; first compound 1 µM) of 0.766 and a relative viability ([5]; first compound 0.01 µM) of 0.788. It also gave a relative viability ([5]; first compound 0.03162 µM) of 0.823, a relative viability ([5]; first compound 0.1 µM) of 0.76 and a relative viability ([5]; first compound 0.3162 µM) of 0.694. It also gave a relative viability ([5]; first compound 1 µM) of 0.635, a relative viability ([6]; first compound 0.01 µM) of 0.406 and a relative viability ([6]; first compound 0.03162 µM) of 0.355. For the same compound, the relative viability ([6]; first compound 0.1 µM) was 0.589, the relative viability ([6]; first compound 0.3162 µM) was 0.411 and the relative viability ([6]; first compound 1 µM) was 0.527. For the same compound, the relative viability ([7]; first compound 0.01 µM) was 0.342, the relative viability ([7]; first compound 0.03162 µM) was 0.332 and the relative viability ([7]; first compound 0.1 µM) was 0.305. For the same compound, the relative viability ([7]; first compound 0.3162 µM) was 0.362, the relative viability ([7]; first compound 1 µM) was 0.271 and the relative viability ([8]; first compound 0.01 µM) was 0.935. It also gave a relative viability ([8]; first compound 0.03162 µM) of 0.939, a relative viability ([8]; first compound 0.1 µM) of 0.945 and a relative viability ([8]; first compound 0.3162 µM) of 0.951. For the same compound, the relative viability ([8]; first compound 1 µM) was 0.914, the relative viability ([9]; first compound 0.01 µM) was 0.313 and the relative viability ([9]; first compound 0.03162 µM) was 0.279. For the same compound, the relative viability ([9]; first compound 0.1 µM) was 0.281, the relative viability ([9]; first compound 0.3162 µM) was 0.287 and the relative viability ([9]; first compound 1 µM) was 0.305. The relative viability ([10]; first compound 0.01 µM) was 0.22, the relative viability ([10]; first compound 0.03162 µM) was 0.231 and the relative viability ([10]; first compound 0.1 µM) was 0.223. For the same compound, the relative viability ([10]; first compound 0.3162 µM) was 0.243, the relative viability ([10]; first compound 1 µM) was 0.27 and the relative viability ([11]; first compound 0.01 µM) was 0.548. The relative viability ([11]; first compound 0.03162 µM) was 0.583, the relative viability ([11]; first compound 0.1 µM) was 0.526 and the relative viability ([11]; first compound 0.3162 µM) was 0.58. The relative viability ([11]; first compound 1 µM) was 0.369, the relative viability ([12]; first compound 0.01 µM) was 0.511 and the relative viability ([12]; first compound 0.03162 µM) was 0.574. The relative viability ([12]; first compound 0.1 µM) was 0.543, the relative viability ([12]; first compound 0.3162 µM) was 0.517 and the relative viability ([12]; first compound 1 µM) was 0.359. The relative viability ([13]; first compound 0.01 µM) was 0.327, the relative viability ([13]; first compound 0.03162 µM) was 0.179 and the relative viability ([13]; first compound 0.1 µM) was 0.226. It also gave a relative viability ([13]; first compound 0.3162 µM) of 0.171, a relative viability ([13]; first compound 1 µM) of 0.0341 and a relative viability ([14]; first compound 0.01 µM) of 0.713. It also gave a relative viability ([14]; first compound 0.03162 µM) of 0.702, a relative viability ([14]; first compound 0.1 µM) of 0.653 and a relative viability ([14]; first compound 0.3162 µM) of 0.484. The relative viability ([14]; first compound 1 µM) was 0.194, the relative viability ([15]; first compound 0.01 µM) was 0.931 and the relative viability ([15]; first compound 0.03162 µM) was 0.8. The relative viability ([15]; first compound 0.1 µM) was 0.923, the relative viability ([15]; first compound 0.3162 µM) was 0.803 and the relative viability ([15]; first compound 1 µM) was 0.626. For the same compound, the relative viability ([16]; first compound 0.01 µM) was 0.984, the relative viability ([16]; first compound 0.03162 µM) was 1.08 and the relative viability ([16]; first compound 0.1 µM) was 1.05. For the same compound, the relative viability ([16]; first compound 0.3162 µM) was 1.04, the relative viability ([16]; first compound 1 µM) was 0.756 and the relative viability ([17]; first compound 0.01 µM) was 0.662. For the same compound, the relative viability ([17]; first compound 0.03162 µM) was 0.569, the relative viability ([17]; first compound 0.1 µM) was 0.577 and the relative viability ([17]; first compound 0.3162 µM) was 0.599. It also gave a relative viability ([17]; first compound 1 µM) of 0.369, a relative viability ([18]; first compound 0.01 µM) of 0.361 and a relative viability ([18]; first compound 0.03162 µM) of 0.429. For the same compound, the relative viability ([18]; first compound 0.1 µM) was 0.358, the relative viability ([18]; first compound 0.3162 µM) was 0.366 and the relative viability ([18]; first compound 1 µM) was 0.299. The relative viability ([19]; first compound 0.01 µM) was 0.802, the relative viability ([19]; first compound 0.03162 µM) was 0.832 and the relative viability ([19]; first compound 0.1 µM) was 0.659. The relative viability ([19]; first compound 0.3162 µM) was 0.236, the relative viability ([19]; first compound 1 µM) was 0.0675 and the relative viability ([20]; first compound 0.01 µM) was 0.878. It also gave a relative viability ([20]; first compound 0.03162 µM) of 0.888, a relative viability ([20]; first compound 0.1 µM) of 0.996 and a relative viability ([20]; first compound 0.3162 µM) of 0.874. For the same compound, the relative viability ([20]; first compound 1 µM) was 0.693, the relative viability ([21]; first compound 0.01 µM) was 0.543 and the relative viability ([21]; first compound 0.03162 µM) was 0.535. For the same compound, the relative viability ([21]; first compound 0.1 µM) was 0.559, the relative viability ([21]; first compound 0.3162 µM) was 0.347 and the relative viability ([21]; first compound 1 µM) was 0.227. The relative viability ([22]; first compound 0.01 µM) was 0.799, the relative viability ([22]; first compound 0.03162 µM) was 0.794 and the relative viability ([22]; first compound 0.1 µM) was 0.721. It also gave a relative viability ([22]; first compound 0.3162 µM) of 0.862 and a relative viability ([22]; first compound 1 µM) of 0.495.
